Assay results taken from the supplement of paper PMC10307832.

Compound: O=C(Nc1cc(C(F)(F)F)cc(C(F)(F)F)c1)c1cc(Cl)ccc1O [IMD-0354] + Nc1ncn([C@H]2C[C@H](O)[C@@H](CO)O2)c(=O)n1 [Decitabine] (partner 2 µM)
Assay: relative viability (nuclei count vs DMSO), 5 days (fraction); higher = more cells survive
Settings: first compound 4 µM
Summary of the method: (§1)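 One day after seeding in 1536-well plates, lung cancer cell lines were dosed by pin tool. Dosing was either single-drug or a fixed anchor-drug dose plus five library-drug doses (not always all listed) in √10 steps. After 5 days, nuclei were stained in one fix-and-stain step and counted on 4× images, and relative viability is the nuclei count of treated wells over that of vehicle wells, given as the median of duplicate plates.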

Cell Line	relative viability
NCI-H1944	0.147
PC-14	0.0785

Compound: Cc1cnc(CNC(=O)c2c(=O)c3ccc(N4CCCN(C)CC4)nc3n3c2sc2ccccc23)cn1 [CX-5461] + O=C(c1cc(Cc2n[nH]c(=O)c3ccccc23)ccc1F)N1CCN(C(=O)C2CC2)CC1 [Olaparib] (partner 8 µM)
Assay: as above
Settings: first compound 0.01 µM
Summary of the method: as §1

Cell Line	relative viability
NCI-H358	0.676
NCI-H2405	0.9
HOP-62	0.315
HCC-44	0.966
LU99A	0.27
BEN	1.12
HARA	0.82
HCC-78	0.977
NCI-H322M	0.761
LCLC-97TM1	0.313
A-427	0.802
NCI-H441	0.553
NCI-H1734	0.662
NCI-H460	0.463
NCI-H2347	0.57
NCI-H1793	1.09

Cell Line	relative viability
201T	0.888
NCI-H1915	0.259
HCC-827	0.703
LXF-289	1.03
NCI-H23	0.376
NCI-H647	0.703
NCI-H1651	0.188
EPLC-272H	0.712
NCI-H1792	0.424
NCI-H1355	0.758
NCI-H3122	0.695
NCI-H1437	0.654
NCI-H1755	0.85
HCC-15	0.607
NCI-H1944	0.409
PC-14	0.241

Same assay, conditions: first compound 0.03162 µM

Cell Line	relative viability
NCI-H358	0.616
NCI-H2405	0.891
HOP-62	0.355
HCC-44	1.04
LU99A	0.241
BEN	1.06
HARA	0.67
HCC-78	0.856
NCI-H322M	0.773
LCLC-97TM1	0.503
A-427	0.772
NCI-H441	0.664
NCI-H1734	0.67
NCI-H460	0.451
NCI-H2347	0.648
NCI-H1793	1

Cell Line	relative viability
201T	0.841
NCI-H1915	0.255
HCC-827	0.69
LXF-289	1.19
NCI-H23	0.303
NCI-H647	0.721
NCI-H1651	0.175
EPLC-272H	0.871
NCI-H1792	0.471
NCI-H1355	0.811
NCI-H3122	0.653
NCI-H1437	0.643
NCI-H1755	0.929
HCC-15	0.721
NCI-H1944	0.381
PC-14	0.252

Same assay, conditions: first compound 0.1 µM

Cell Line	relative viability
NCI-H358	0.575
NCI-H2405	0.866
HOP-62	0.287
HCC-44	1.03
LU99A	0.297
BEN	1.2
HARA	0.793
HCC-78	0.949
NCI-H322M	0.691
LCLC-97TM1	0.466
A-427	0.626
NCI-H441	0.478
NCI-H1734	0.633
NCI-H460	0.286
NCI-H2347	0.606
NCI-H1793	0.879

Cell Line	relative viability
201T	0.856
NCI-H1915	0.242
HCC-827	0.767
LXF-289	1.05
NCI-H23	0.326
NCI-H647	0.415
NCI-H1651	0.191
EPLC-272H	0.785
NCI-H1792	0.477
NCI-H1355	0.689
NCI-H3122	0.615
NCI-H1437	0.528
NCI-H1755	0.819
HCC-15	0.625
NCI-H1944	0.422
PC-14	0.125

Same assay, conditions: first compound 0.3162 µM

Cell Line	relative viability
NCI-H358	0.494
NCI-H2405	0.792
HCC-44	1
LU99A	0.221
BEN	1.02
HARA	0.876
HCC-78	0.816
NCI-H322M	0.5
LCLC-97TM1	0.333
A-427	0.247
NCI-H441	0.588
NCI-H1734	0.553
NCI-H460	0.39
NCI-H2347	0.477
NCI-H1793	0.937
201T	0.84
NCI-H1915	0.262
HCC-827	0.644
NCI-H23	0.333
NCI-H647	0.552
NCI-H1651	0.163
EPLC-272H	0.74
NCI-H1792	0.371
NCI-H1355	0.736
NCI-H3122	0.667
NCI-H1437	0.648
NCI-H1755	0.806
HCC-15	0.693
NCI-H1944	0.392
PC-14	0.213

Same assay, conditions: first compound 1 µM

Cell Line	relative viability
NCI-H358	0.266
NCI-H2405	0.639
HOP-62	0.254
HCC-44	1.01
LU99A	0.284
BEN	0.737
HARA	0.556
HCC-78	0.738
NCI-H322M	0.511
LCLC-97TM1	0.298
A-427	0.465
NCI-H441	0.448
NCI-H1734	0.511
NCI-H460	0.0729
NCI-H2347	0.517
NCI-H1793	0.792

Cell Line	relative viability
201T	0.793
NCI-H1915	0.252
HCC-827	0.611
LXF-289	0.953
NCI-H23	0.287
NCI-H647	0.0876
NCI-H1651	0.159
EPLC-272H	0.493
NCI-H1792	0.39
NCI-H1355	0.714
NCI-H3122	0.617
NCI-H1437	0.567
NCI-H1755	0.818
HCC-15	0.538
NCI-H1944	0.395
